{"source": "patent US20180028690A1", "about": "“INDOCYANINE GREEN FORMULATIONS AND METHODS FOR IMAGING OF THE URINARY PATHWAYS” (Yissum Reseach Development Company of the Herbrew …, priority 2015, published 2018)", "key": {"[1]": {"conditions": "literature (Bax 1980; Cherrick 1960); cited from earlier work"}, "[2]": {"assay": "Ureter imaging with ICG-HPβCD inclusion complex vs free ICG (Typhoon imager)", "format": "in vivo, female FVB mice", "conditions": "8 mg/kg ICG, 10 min post injection", "protocol": "60 mg of ICG (Acros) was solubilized in 12.5 ml of DDW. 2 ml of ICG solution were added to 10 ml of phosphate buffer (pH 7, 2 mM, and sucrose 9.3% w/w). 18.5 mg of HPβCD (Acros) were added to ICG buffered solution and mixed for 10 h at 4° C. […] Mice were sacrificed 10 min post injection and imaged by Typhoon imager (General Electric)."}, "[3]": {"assay": "Fluorescence spectra and relative quantum yield of ICG-adsorbed liposomes vs ICG in aqueous solution", "format": "physicochemical", "experimental": "The fluorescence spectra of the ICG-adsorbed liposomes prepared were evaluated in comparison to those of ICG in aqueous solution.\nThe relative quantum yield was calculated according to the following equation (Fery-Forgues and Lavabre, 1999):\nwhere φ is the quantum yield, F is the area under the emission peak (expressed in number of photons), A is absorbance at the excitation wavelength, and n is the refractive index of the solvents. The subscript x denotes the respective values of the sample (liposome-ICG), and s denotes standard (free ICG in buffer)."}, "[4]": {"assay": "Stability of ICG absorption at light and at dark over time", "format": "physicochemical", "conditions": "aqueous solution or adsorbed to liposomes", "protocol": "The red shift is accompanied with quenching of fluorescence, i.e., the larger the red shift the lower the fluorescence intensity. Because the fluorescence intensity of ICG-liposomes was greater than that of unbound ICG molecules (aqueous solution), the quantum yield ratio between the two states in which ICG is present was determined, for a concentration of 1.28×10^−3 mM. ICG is poorly stable in aqueous solutions due to degradation, and therefore, in order to evaluate the stability of the ICG-adsorbed liposomes, the absorption of this fluorescent probe, when dissolved in an aqueous solution or adsorbed to the liposomes, was measured at light and at dark over time."}, "[5]": {"assay": "Imaging of surgically exposed kidneys and ureters after midline laparotomy", "format": "in vivo, Female FVB mice", "conditions": "P<0.01", "protocol": "An additional cohort of animals was used for further studies of the accumulation of liposomal ICG in the urinary system. Liposomal or free ICG was injected into the tail vein, and 3 min later, mice were treated with high dose pentobarbital administered intraperitoneally. Overall time of active circulation after the ICG injection was about 10 min. Thereafter, mice were subjected to midline laparotomy with full exposure of the retroperitoneum. The ureters were identified in their origin from the kidneys, and distally clipped or loosely tied for identification. The mice were also hysterectomyzed to ease the urinary bladder identification. Subsequently, the animals were scanned by the Typhoon FLA 9500 biomolecular imager. Each experiment was repeated at least three times."}, "[6]": {"assay": "Whole body NIR imaging (IVIS Kinetic) after intravenous injection", "format": "in vivo, Female FVB mice", "protocol": "Mice were shaved under isoflurane (1-2%, v/v) anesthesia and underwent baseline scans using an IVIS Kinetic® in vivo imaging system (Caliper Life Sciences, Hopkinton, Mass., USA). Two hundred μl of 8 mg/kg Phospholipon® 50 ICG liposomes or the free compound in 2 mM sucrose buffer (phosphate buffer pH 7, with 9.3% w/w sucrose) were injected into the tail vein and the mice were repetitively scanned over a time period of up to 120 min.\nAnalysis of in vivo ICG pharmacokinetics (PK), including region of interest (ROI) placement (Living Image; PerkinElmer, Waltham, Mass., USA; (Schneider et al., 2012)) and calculation of the area under the concentration-time curve (AUC) from the time of injection to the time of the last measurement (Phoenix WinNonlin; Certara; St. Louis, Mo., USA), was conducted as previously described (Portnoy et al., 2012). Partial areas were calculated for the AUC between the time of ICG injection (0 min) and 60 or 120 min after injection (AUC0-60 min and AUC0-120 mm, respectively). Data are presented as means±SD. The non-parametric Mann-Whitney or Kruskal-Wallis tests, as appropriate, were used to determine the statistical significance of difference (p<0.05) between experimental groups (InStat; GraphPad, La Jolla, Calif., USA)."}}, "note": "“And” between values parts separate entries of the source, which are not always exact repeats. Equal values may be shown once.", "data": [{"smiles": "CC1(C)C(/C=C/C=C/C=C/C=C2\\N(CCCCS(=O)(=O)O)c3ccc4ccccc4c3C2(C)C)=[N+](CCCCS(=O)(=O)[O-])c2ccc3ccccc3c21", "note": "[free ICG, indocyanine green]", "values": [{"measurement": "half life in plasma", "setting": "[1]", "value": "in the minutes range"}, {"measurement": "renal elimination after systemic administration", "setting": "[1]", "value": "negligible"}, {"measurement": "labelling of ureters", "setting": "[2]", "value": "did not"}, {"measurement": "renal excretion", "setting": "[2]", "value": "negligibly excreted in the urine"}, {"measurement": "ICG emission peak in water, shift", "setting": "[3]; concentrations above 6.4×10^−3 mM", "value": "up to 814 nm"}, {"measurement": "ICG emission peak in water", "setting": "[3]; concentrations less than 6.4×10^−3 mM", "value": 805, "unit": "nm"}, {"measurement": "absorption over time at light and at dark (stability)", "setting": "[4]", "value": "decreases over time both in light and in dark"}, {"measurement": "ureteral emission normalized to renal emission (ureters/kidneys ratio)", "setting": "[5]", "value": "0.56±0.10 and 0.5"}, {"measurement": "urinary bladder/feet AUC0-60 min ratio of emission intensity", "setting": "[6]; 8 mg/kg ICG i.v., feet-normalized AUC, 0-60 min", "value": "2.3±0.5"}, {"measurement": "urinary bladder/feet AUC0-120 min ratio of emission intensity", "setting": "[6]; 8 mg/kg ICG i.v., feet-normalized AUC, 0-120 min", "value": "2.3±0.4"}, {"measurement": "emission intensity AUC of the urinary bladder relative to that of the feet", "setting": "[6]; control mice, 8 mg/kg i.v.", "value": 2.3, "unit": "fold"}]}]}
